What was measured:
[1] = biological target: T1, Retinoic acid receptor beta (Mus musculus) (UniProt P22605); assay: Transactivation of mouse Gal4-fused RARbeta-LBD expressed in COS-7 cells after 1 day by bright-Glo reagent based assay relative to control ATRA; format: cell-based
T1 sequence (whole entry): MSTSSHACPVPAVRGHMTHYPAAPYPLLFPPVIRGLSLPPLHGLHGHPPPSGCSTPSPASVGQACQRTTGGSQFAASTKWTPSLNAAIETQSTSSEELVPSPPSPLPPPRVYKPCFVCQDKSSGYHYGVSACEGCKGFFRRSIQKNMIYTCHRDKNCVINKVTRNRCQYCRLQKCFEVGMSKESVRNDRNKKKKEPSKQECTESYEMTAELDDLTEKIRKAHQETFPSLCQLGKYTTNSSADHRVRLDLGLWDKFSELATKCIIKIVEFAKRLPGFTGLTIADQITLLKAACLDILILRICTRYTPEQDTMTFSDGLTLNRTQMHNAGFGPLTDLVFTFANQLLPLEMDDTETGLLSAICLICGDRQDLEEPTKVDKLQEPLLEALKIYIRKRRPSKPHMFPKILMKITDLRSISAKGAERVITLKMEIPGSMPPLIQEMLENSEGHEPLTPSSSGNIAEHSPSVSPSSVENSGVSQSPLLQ

[2] = biological target: T2, Retinoic acid receptor gamma (Mus musculus) (UniProt P18911); assay: Transactivation of mouse Gal4-fused RARgamma-LBD expressed in COS-7 cells after 1 day by bright-Glo reagent based assay relative to control ATRA; format: cell-based
T2 sequence (whole entry): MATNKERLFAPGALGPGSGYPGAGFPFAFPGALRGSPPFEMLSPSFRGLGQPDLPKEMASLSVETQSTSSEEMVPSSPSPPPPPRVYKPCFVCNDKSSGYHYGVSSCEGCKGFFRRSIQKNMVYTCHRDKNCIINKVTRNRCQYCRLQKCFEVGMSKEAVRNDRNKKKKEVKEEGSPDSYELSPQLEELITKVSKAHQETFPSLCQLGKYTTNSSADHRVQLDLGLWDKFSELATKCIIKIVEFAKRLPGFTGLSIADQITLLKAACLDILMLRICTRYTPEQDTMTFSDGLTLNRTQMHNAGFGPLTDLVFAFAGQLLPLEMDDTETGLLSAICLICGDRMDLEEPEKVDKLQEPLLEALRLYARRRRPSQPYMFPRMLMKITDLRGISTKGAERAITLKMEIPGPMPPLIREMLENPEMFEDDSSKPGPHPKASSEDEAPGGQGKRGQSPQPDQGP

[3] = biological target: T3, Retinoic acid receptor alpha (Mus musculus) (UniProt P11416); assay: Transactivation of mouse Gal4-fused RARalpha-LBD expressed in COS-7 cells after 1 day by bright-Glo reagent based assay relative to control ATRA; format: cell-based
T3 sequence (whole entry): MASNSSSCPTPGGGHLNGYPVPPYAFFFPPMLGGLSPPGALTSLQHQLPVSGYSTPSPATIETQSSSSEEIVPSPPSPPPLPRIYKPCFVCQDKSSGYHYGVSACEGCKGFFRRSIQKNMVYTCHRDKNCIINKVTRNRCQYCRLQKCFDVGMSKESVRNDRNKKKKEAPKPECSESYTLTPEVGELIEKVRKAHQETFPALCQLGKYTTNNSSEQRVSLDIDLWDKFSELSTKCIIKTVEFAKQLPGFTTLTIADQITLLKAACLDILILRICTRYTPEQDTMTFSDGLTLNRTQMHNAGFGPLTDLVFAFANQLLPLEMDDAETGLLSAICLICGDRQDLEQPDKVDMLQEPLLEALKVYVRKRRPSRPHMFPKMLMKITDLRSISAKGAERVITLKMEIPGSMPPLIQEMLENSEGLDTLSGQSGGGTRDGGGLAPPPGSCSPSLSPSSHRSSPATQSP

[4] = Oral bioavailability in Sprague-Dawley rat at 10 mg/kg by LC-MS/MS analysis; format: ADME, organism-based; settings: in vivo
[5] = system: Rattus norvegicus; assay: AUC in Sprague-Dawley rat at 10 mg/kg, po by LC-MS/MS analysis; format: ADME, organism-based; settings: in vivo

SMILES | Ratio EC50 [1] | Ratio EC50 [2] | Ratio EC50 [3] | bioavailability [4] [%] | AUC [5] [ng·min/mL]
CCOc1cc(C(=O)Nc2ccc(C(=O)O)cc2)cc(OCC)c1OCC | 64100 | 5880 | 368 to 370 |  | 
O=C(O)c1ccc(NC(=O)c2cc(Cl)c(OC3CCC3)c(OC3CCC3)c2)cc1 | 53 | 1060 | 2.4 |  | 
COc1c(Cl)cc(C(=O)Nc2ccc(C(=O)O)c(F)c2)cc1OC(C)C |  |  | 6.7 |  | 
CCOc1cc(C(=O)Nc2ccc(C(=O)O)cc2)cc(Cl)c1OC(C)C | 7.1 | 1200 | 2.1 |  | 
CCOc1c(Cl)cc(C(=O)Nc2ccc(C(=O)O)c(C(F)(F)F)c2)cc1Cl |  |  | 1.7 |  | 
O=C(O)c1ccc(NC(=O)c2cc(Cl)c(OC3CCCC3)c(OC3CCCC3)c2)cc1 | 55 | 571 | 1.7 |  | 
CCCCOc1c(Cl)cc(C(=O)Nc2ccc(C(=O)O)cc2)cc1Cl | 717 | 1480 | 84 |  | 
CC(C)Oc1cc(C(=O)Nc2ccc(C(=O)O)cc2)cc(OC(C)C)c1OC(C)C | 2600 | 225 | 27 |  | 
CCOc1c(Cl)cc(C(=O)Nc2ccc(C(=O)O)c(C)c2)cc1OCC1CC1 |  |  | 2.6 |  | 
CCOc1cc(C(=O)Nc2ccc(C(=O)O)cc2)cc(OC(C)C)c1OCC | 2450 | 960 | 29 |  | 
COc1c(Cl)cc(C(=O)Nc2ccc(C(=O)O)cc2)cc1Cl | 9520 | 5850 | 30 |  | 
CCOc1c(C(C)(C)C)cc(C(=O)Nc2ccc(C(=O)O)cc2)cc1C(C)(C)C |  |  | 0.2 |  | 
CCOc1c(OC2CCCC2)cc(C(=O)Nc2ccc(C(=O)O)cc2)cc1OC1CCCC1 | 4200 | 550 | 29 |  | 
CC(C)Oc1cc(C(=O)Nc2ccc(C(=O)O)c(F)c2)cc(Cl)c1OC(C)C |  |  | 2.7 |  | 
O=C(O)c1ccc(NC(=O)c2cc(Cl)c(O)c(Cl)c2)cc1 | 642 | 5000 | 92 |  | 
CCCOc1c(Cl)cc(C(=O)Nc2ccc(C(=O)O)cc2)cc1Cl | 139 | 1200 | 15 |  | 
CCOc1cc(C(=O)Nc2ccc(C(=O)O)c(C)c2)cc(Cl)c1OC(C)C |  |  | 7 |  | 

SMILES | Ratio EC50 [1] | Ratio EC50 [2] | Ratio EC50 [3] | bioavailability [4] [%] | AUC [5] [ng·min/mL]
CCOc1c(Cl)cc(C(=O)Nc2ccc(C(=O)O)cc2)cc1OC1CCC1 |  |  | 1 |  | 
CC(C)Oc1c(Cl)cc(C(=O)Nc2ccc(C(=O)O)cc2)cc1Cl | 1420 | 823 | 7 |  | 
CCOc1c(Cl)cc(C(=O)Nc2ccc(C(=O)O)c(F)c2)cc1Cl |  |  | 25 |  | 
CC(C)(C)Oc1cc(C(=O)Nc2ccc(C(=O)O)cc2)cc(Cl)c1OC(C)(C)C | 38 | 162 | 0.9 |  | 
CCOc1c(Cl)cc(C(=O)Nc2ccc(C(=O)O)c(Cl)c2)cc1Cl |  |  | 151 |  | 
CCOc1c(Br)cc(C(=O)Nc2ccc(C(=O)O)cc2)cc1Br |  |  | 5 |  | 
Cc1cc(NC(=O)c2cc(Cl)c(OC(C)(C)C)c(OC(C)(C)C)c2)ccc1C(=O)O |  |  | 0.64 |  | 
CCOc1c(Cl)cc(NC(=O)c2ccc(C(=O)O)cc2)cc1Cl | 355 | > 108000 | 30 |  | 
CCOc1c(Cl)cc(C(=O)Nc2ccc(C(=O)O)c(O)c2)cc1Cl |  |  | 33 |  | 
COc1c(Cl)cc(C(=O)Nc2ccc(C(=O)O)c(C)c2)cc1OC(C)C |  |  | 4.7 |  | 
CCOc1c(Cl)cc(C(=O)Nc2ccc(C(=O)O)cc2)cc1Cl |  |  |  | > 35 | 
Cc1cc(NC(=O)c2cc(Cl)c(OC(C)C)c(OC(C)C)c2)ccc1C(=O)O |  |  | 0.97 |  | 
CCOc1c(OC(C)C)cc(C(=O)Nc2ccc(C(=O)O)cc2)cc1OC(C)C |  |  |  |  | 783782
CCOc1c(Cl)cc(C(=O)Nc2ccc(C(=O)O)c(F)c2)cc1OC(C)C |  |  | 1.1 |  | 
CC1(C)CCC(C)(C)c2c1cc(C(=O)Nc1cc(F)c(C(=O)O)c(F)c1)c(O)c2Cl [NRX195183] | 1560 | 9840 | 11 |  | 
CCOc1c(Cl)cc(C(=O)Nc2ccc(C(=O)O)c(C)c2)cc1OC |  |  | 33 |  | 

— ChEMBL document CHEMBL4184197 (Bioorg Med Chem, 2018)
